Experimental data as given in patent US10765657B2, “Selamectin for treatment of sea lice infestations” (priority 2013, dated 2020).

Columns and labels:
naïve sea lice = experiment: Prophylactic efficacy of medicated feed against sea lice challenge in fish; assay type: in vivo
Procedure: Experimental diets containing selamectin were administered to 15×2 m diameter tanks of 75 fish by voluntary feeding from Day 0 to Day 6. […] The study evaluated the three concentrations of test material in comparison to a negative control (placebo) and a positive control. Each group was run as triplicate tanks. In each group, sea lice were evaluated using a representative sample of 5 fish per tank on Day −1 (pre-treatment) and 10 fish per tank on days 10 and 30 (4 and 24 days post-treatment).
The prophylactic effect of treatment was determined by removing lice and using further sea lice challenges at intervals. All adult lice were removed from remaining fish following Day 30 and a further sea lice challenge took place on Day 37 (31 days post treatment) and lice counts and tissue samples taken from 10 fish per tank on Day 60 (53 days post treatment).
All adult lice were removed from remaining fish following Day 64 and 12 fish per tank were moved to 15×1 m diameter tanks. On Day 67 (61 days post-treatment) the fish in these 1 m tanks received a further sea lice challenge and on Day 90 (84 days post-treatment) lice counts and tissue samples were taken from 10 fish per tank.
On Day 76 (70 days post-treatment) the fish remaining in 2 m tanks received a further naïve sea lice challenge and on Day 99 (93 days post-treatment) lice counts and tissue samples were taken from 10 fish per tank.

[1] = system: naïve sea lice, Lepeophtheirus salmonis; experiment: Static 24 hour sea lice bioassay, naïve strain; details: 24 hours exposure, 0.2% DMSO in seawater, about 10-12° C.
[2] = system: emamectin benzoate resistant sea lice, Lepeophtheirus salmonis; experiment: Static 24 hour sea lice bioassay, emamectin benzoate resistant strain; details: 24 hours exposure, 0.2% DMSO in seawater, about 10-12° C.

Row | Compound | prophylactic efficacy (naïve sea lice; 40 μg/kg/day oral in feed, Day 0 to Day 6, at 4.4 weeks) | prophylactic efficacy (naïve sea lice; 40 μg/kg/day oral in feed, Day 0 to Day 6, at 10 weeks) | prophylactic efficacy (naïve sea lice; 160 μg/kg/day oral in feed, Day 0 to Day 6, at 4.4 weeks) | prophylactic efficacy (naïve sea lice; 160 μg/kg/day oral in feed, Day 0 to Day 6, out to 10 weeks) | Adult females EC50 [1] | Adult males EC50 [1] | Adult females EC50 [2] | Adult males EC50 [2] | prophylactic efficacy (naïve sea lice; 50 μg/kg/day (commercially licensed value) oral in feed, at 4.4 weeks) | prophylactic efficacy (naïve sea lice; 50 μg/kg/day (commercially licensed value) oral in feed, out to 10 weeks)
1 | CO[C@H]1C[C@H](O[C@@H]2/C(C)=C/C[C@@H]3C[C@@H](C[C@]4(CC[C@H](C)[C@@H](C5CCCCC5)O4)O3)OC(=O)[C@@H]3C=C(C)/C(=N/O)[C@H]4OC/C(=C\C=C\[C@@H]2C)[C@]43O)O[C@@H](C)[C@@H]1O [Selamectin, selamectin] | 99.6% | 68.4% | 100% | 98.5% | 10.68 ppb | 3.21 ppb | 16.91 ppb | 6.95 ppb | – | –
2 | emamectin benzoate | – | – | – | – | 29 ppb | 112 ppb | 65 ppb | 202 ppb | 100% | 72.9%
